According to PubChem BioAssay AID2305 (GlaxoSmithKline (GSK), 2010):

Test system: P. falciparum 3D7 growth, pLDH absorbance
Experiment: P. falciparum 3D7 growth inhibition, dose response, strain 3D7 (AID 2305)

SMILES	IC50 [nM]
Cc1cc(N[C@@H](Cc2ccccc2)C(=O)NCc2cccc(F)c2)nc(NCCCOC(C)C)n1	920
CCN(CC)CCOC(=O)c1ccc(NC(=O)c2cc(-c3ccc(C)cc3)nc3ccccc23)cc1	780
CN(CCN)Cc1cccc(-c2cccc(-c3nc4ccc(C(F)(F)F)cc4[nH]3)c2)c1	510
COc1cc2nc(-c3ccccc3)nc(N3CCN(CC(=O)N4CCCC4)CC3)c2cc1OC	1130
FC(F)(F)c1ccc(/C=C/c2cncnc2Nc2ccc3nc(Cc4ccccc4)[nH]c3c2)cc1	610
Cc1cc(C)c2c(c1)C(=NO)CCN2	940
O=C(Nc1ccc(Cl)c(Cl)c1)N1CCc2ccc(OCCCN3CCCCC3)cc2CC1	1520
CC(=O)Nc1nc(C(=O)Nc2cccc(-c3cccc(-c4nc5ccccc5[nH]4)c3)c2)cs1	170
COc1cc(F)c2ncc(Cl)c([C@@H](O)CN3CCC(NCc4ccc5c(n4)NC(=O)CO5)CC3)c2c1	120
FC(F)(F)c1cnc(Sc2nnc(-c3ccncc3)o2)c(Cl)c1	270
CCOc1cc(C)ccc1N1CCN(CCCCNC(=O)c2ccc(NC(=O)c3ccc(Cl)cc3)cc2)CC1	640
O=C1c2ccccc2C(=O)N1CCOc1c(Br)cc(Br)cc1CNCCCNc1cc(=O)c2ccccc2[nH]1	840
Cc1occc1C(=O)Nc1nc(-c2ccccn2)nc2ccsc12	900
CC(C(=O)NC1CCN(c2ccnc(Nc3ccc(F)cc3)n2)C1)c1ccc(Cl)cc1 (centres undefined)	860
O=C(Nc1ccc(O)c(-c2nc3ccccc3[nH]2)c1)c1ccc([N+](=O)[O-])cc1	320
O=C(C=Cc1cccc(F)c1)NC1CCC(CCN2CCc3ccc(-c4cnccn4)cc3CC2)CC1 (centres undefined)	450
CN(C)CC(=O)NCC(NCCCNc1cc(=O)c2ccccc2[nH]1)c1cc(Br)cc(Br)c1 (centres undefined)	1050
Cc1ccccc1-c1nc2c(CN3CCC(O)(c4ccccc4)CC3)c(O)ccc2[nH]1	870
CCCC(C)Nc1nc(C)cc(NCCC(=O)Nc2ccccc2)n1 (centres undefined)	960
CC1CCN(Cc2cccc(C(=O)NCc3ccc(F)c(-c4cccc(CN5CCN[C@@H](C)C5)c4)c3)c2)CC1	1460
CN(C)CCCNc1ncnc2c1[nH]c1ccc(Cl)cc12	280
Cc1sc(N2CCN(C)CC2)nc1C(=O)Nc1ccc(F)cc1C(F)(F)F	1070
COc1ccccc1-c1ccc2nnc(SCC(=O)Nc3ccc4c(c3)OCCO4)n2n1	720
CCOC(=O)c1ccc(NC(=O)N(Cc2ccc(-c3ccc(CN4CCNCC4)cc3)cc2)C2CCN(Cc3ccccc3)CC2)cc1	800
CC1(C)CCCN(Cc2c(O)ccc3c(=O)c(-c4nc5ccccc5s4)c(N)oc23)C1	340

SMILES	IC50 [nM]
CC(C)N1CCC(N(Cc2ccc(-c3ccc(C(F)(F)F)cc3)cc2)C(=O)Cn2c(CCc3cccc(F)c3F)cc(=O)c3c2CCC3)CC1	620
COc1cc2c(cc1C(F)(F)F)N(C(=O)Nc1cc(F)c(F)c(-c3cccnc3)c1)CC2	630
O=C(NCC1COc2ccccc2O1)c1cnc2c(c1)nc(-c1cnc(-c3ccccc3)[nH]1)n2CCSCc1c(F)cccc1Cl (centres undefined)	960
CCOC(=O)c1cnc2c(OC)cc(OC)c(Cl)c2c1Nc1ccccc1	870
C[C@H](N[C@H]1CCCc2c1[nH]c1ccc(Br)cc21)c1ccccc1	220
C#CC[C@@H](NC(N)=O)C(=O)O	190
CC(=O)N(C)C1CCN(Cc2ccc(-c3ccc(-c4nc5ccc(F)cc5[nH]4)s3)cc2)C1 (centres undefined)	970
C=CCn1c(Cc2ccccc2)nnc1Sc1ccc(C#N)c([N+](=O)[O-])c1	1030
CC(CN(C)C)C(=O)Nc1ccc(-c2ccc(-c3nc4ccc(C(F)(F)F)cc4[nH]3)cc2)cc1 (centres undefined)	750
CN(C)C=Nc1ccc(OCCCCCCOc2ccc(N=CN(C)C)cc2)cc1	130
Cc1nc(-c2cccc(NC(C)C(=O)Nc3cc(C(F)(F)F)ccc3N3CCOCC3)c2)cs1 (centres undefined)	240
COc1ccc2nc(N3CCNCC3)nc(NCCCc3ccccc3)c2c1	1000
Cc1ccc(C)c(NC(=O)Nc2ccc(C)c(-c3ccc(C(=O)Nc4ccncc4)cc3)c2)c1	620
COc1ccc2c(NN=Cc3ccc(N(C)C)cc3)ccnc2c1	660
C[C@H](NC(=O)[C@H](Cc1ccccc1)NC(=O)OC(C)(C)C)C(=O)N[C@@H](CC1CCCCC1)C(O)CN (some centres undefined)	730
CC(=O)Nc1ccc(CN2CCC(NC(=O)c3cc(-c4ccc(N(C)C)cc4)cs3)C2)cc1 (centres undefined)	1170
COC(=O)/C=C/c1ccc(CC(C)NCC(O)c2cccc(Cl)c2)cc1 (centres undefined)	750
O=C(NC(=O)c1ccccc1)NC1CCN(c2ccnc3cc(Cl)ccc23)C1 (centres undefined)	580
Cc1cc2ccccc2n1CC(=O)N1CC(C(=O)N2CCCCC2)Oc2ccccc21 (centres undefined)	900
Cc1cccc2[nH]c(-c3ccc(-c4cccc(CN5CCC(C(N)=O)CC5)c4)cc3)nc12	1770
COc1cc2nc(N3CCC(CNC(=O)c4ccc(OC(F)(F)F)cc4)CC3)nc(N)c2cc1OC	220
Cc1noc(-c2ccc3c(c2)CCN(CCC2CCC(NC(=O)/C=C/c4ccc(F)cc4)CC2)CC3)n1 (centres undefined)	1030
Nc1nc(N)c2c(ccc3c2ccn3CCCF)n1	150
CCCCC(=O)Nc1cc(=O)[nH]c2nc(-c3ccc(Cl)cc3)nn12	710
O=C(Nc1cccc(C(F)(F)F)c1)c1cccc(S(=O)(=O)NC2CCN(CC3CCCCC3)C2)c1 (centres undefined)	590

SMILES	IC50 [nM]
c1cc(C2=N[C@H]3CCCC[C@@H]3N2)ccc1OCCCOc1ccc(C2=N[C@@H]3CCCC[C@H]3N2)cc1	730
ON=C(c1nc2ccccc2[nH]1)c1nc2ccccc2[nH]1	1090
CCc1nnc2sc(-c3cccc(NC(=O)c4ccc(OC)c(Cl)c4)c3)nn12	1140
Fc1cc(Cl)ccc1Nc1ccnc2cc(-c3ccc(CN4CCSCC4)o3)ccc12	780
CCN(CC)CCN(Cc1ccc(-c2ccc(C(F)(F)F)cc2)cc1)C(=O)Cn1c(CCc2cccc(C#N)c2)nc(=O)c2ccccc21	770
O=C(Nc1cc(C(F)(F)F)cc(C(F)(F)F)c1)c1cccc([N+](=O)[O-])c1	890
CC(=O)Nc1cccc(C(=O)Nc2cccc(-c3ccc(-c4nc5c(C)cccc5[nH]4)s3)c2)c1	770
COc1ccc(CCN(C)CCCOc2ccc(NC(=O)COc3cccc4sc5ccccc5c(=O)c34)cc2)cc1OC	460
CN1CCN(c2ccnc3ccc(NC(=O)Nc4ccc(-c5ccncc5)c(C(F)(F)F)c4)cc23)CC1	820
Cc1cc(OCCCN2CCCCC2C)ccc1NC(=O)COc1ccc(Cl)cc1C(=O)c1cc(Cl)cc(C#N)c1 (centres undefined)	980
CCCCCCN1CCCN(Cc2cccc(C(=O)Nc3ccc(C(C)(C)C)cc3)c2)CC1	940
CCC(=O)Nc1ccc(C(O)CN2CCC3(C=Cc4ccccc4O3)CC2)cc1 (centres undefined)	1200
O=C(/C=C/c1ccccc1O)N1CCC(CCN2CCC(c3c[nH]c4ccccc34)CC2)CC1	1340
Cc1cc2c(cc1C(F)(F)F)N(C(=O)Nc1cccc(C(=O)NC3CCN(Cc4ccccc4)CC3)c1)CC2	910
COCCNCc1ccc(-c2ccc(CN(C(=O)NC3CCCCC3)C3CCN(Cc4ccccc4)CC3)cc2)cc1	960
O=C(CC(=O)Nc1cc(Cl)cc(Cl)c1)Nc1cc(Cl)cc(Cl)c1	160
Cc1cc(NC(=O)c2ccc(S(=O)(=O)N(Cc3ccccc3)C(C)C)cc2)no1	850
Cc1ccc(-c2noc(COc3ccccc3C(=O)NC3CCCC3)n2)cc1	880
CN1CCc2cc(O)c(NS(=O)(=O)c3ccc(-c4ccc(Cl)cc4)cc3)cc2CC1	770
COc1ccc(NC(=O)Nc2ccc(-c3ccc(-c4nc5c(C)cccc5[nH]4)s3)cc2)cc1	180
O=C(/C=C/c1cc(C(F)(F)F)ccc1F)NCCCCCN1CCC(c2c[nH]c3ccccc23)CC1	1130
COc1cc(C(=O)N2CCOC(CCN3CC[C@@H]4c5ccccc5C[C@@H]43)(c3ccc(Cl)c(Cl)c3)C2)cc(OC)c1OC (some centres undefined)	530
Nc1ncnc2cc(-c3cccc(NC(=O)Nc4ccccc4)c3)sc12	710
COc1ccc(CNc2ncnc3c2[nH]c2ccc(F)cc23)cc1	980
Cc1cccc(Cn2nc(-c3ccccc3)c(N3CCCCC3)cc2=O)c1	460

SMILES	IC50 [nM]
CN(C)c1ccc(CN2CCCCC(NC(=O)c3cc(-c4ccccc4Cl)cs3)C2)cc1 (centres undefined)	1060
COc1cc2nc(N[C@@H](CO)c3ccccc3)nc(NCc3ccccc3)c2cc1OC	660
O=C1OC2(CCN(C(=O)c3ccc(-n4cnnn4)cc3)CC2)CN1Cc1ccc(Cl)c(Cl)c1	720
Cc1oc(-c2ccccc2)nc1CCOc1ccc(C[C@H](Nc2ccccc2C(=O)c2ccccc2)C(=O)NCc2ccccn2)cc1	880
FC(F)(F)c1ccc2nccc(NN=Cc3ccccc3Cl)c2c1	800
CC1CCN(Cc2c(O)ccc3c(=O)c(-c4nc5ccccc5s4)c(N)oc23)CC1	160
Fc1ccc(COc2ccc(Nc3ncnc4ccc(I)cc34)cc2Cl)cc1	1180
COC(=O)c1cc(C(=O)CN(Cc2ccccc2)C(C)C)ccc1O	180
CCOC(=O)c1ccc(-c2cnoc2-c2cc(CC)c(OC)cc2O)o1	280
COc1cc(C2=NN(S(=O)(=O)c3c(C)cc(C)cc3C)CCCC2)ccc1Cl	780
Cc1nnsc1C(=O)Nc1cccc(-c2ccc(-c3nc4ccc(F)cc4[nH]3)cc2)c1	100
COc1cc(F)c2ncc(Cl)c([C@H](O)CN3CCC(NCc4cc5c(cn4)OCCO5)CC3)c2c1	100
COC(=O)c1ccc2c(c1)nc(Nc1cccc(F)c1)n2CC(O)c1ccccn1 (centres undefined)	730
Cc1[nH]c(C)c(-c2ccc(S(=O)(=O)c3ccc(Cl)cc3)cc2)c(=O)c1Br	40
COc1c(C2CCN(CCCCNC(=O)c3ccc(-c4ccc(Cl)cc4)c(O)c3)CC2)ccc2c1CCCC2	230
Cc1nc2ccc(F)cc2n1C1CCN(C(=O)Cc2ccc(F)c(F)c2)CC1	1410
CCCCNC(c1ccc(Cl)cc1)C(O)c1ccc(Cl)cc1 (centres undefined)	620
COc1ccc2c(c1)Nc1ccc(Cl)cc1C2N (centres undefined)	300
O=C(NC1CC1)c1cnc(N2CCC(Cc3ccccc3)CC2)c(Cl)c1	670
Clc1ccc2nnc(-c3c(Cl)cccc3Cl)n2n1	910
c1ccc(OCCOc2ccc(Nc3ccnc4cc5ccccc5cc34)cc2)cc1	250
S=C(NCCCCCN1CCC(c2c[nH]c3ccccc23)CC1)Nc1ccc(Cl)c(Cl)c1	710
Nc1nccc2ccc(-c3ccc4nccn4c3)cc12	100
COc1ccc(NC(=O)NC2CCN(c3ccnc4cc(Cl)ccc34)C2)cc1 (centres undefined)	100
